Source: ChEMBL document CHEMBL1156520, “Inhibition of human dimethylarginine dimethylaminohydrolase-1 by S-nitroso-L-homocysteine and hydrogen peroxide. Analysis, quantification, and implications for hyperhomocysteinemia” (J Biol Chem, 2007)

Assays:
[1] = Inhibition of recombinant N-glutathione transferase/human DDAH1 fusion protein
[2] = target: N(G),N(G)-dimethylarginine dimethylaminohydrolase 1 (Homo sapiens, UniProt O94760); test: Inhibition of human recombinant DDAH1
Sequence of N(G),N(G)-dimethylarginine dimethylaminohydrolase 1 (O94760 whole entry): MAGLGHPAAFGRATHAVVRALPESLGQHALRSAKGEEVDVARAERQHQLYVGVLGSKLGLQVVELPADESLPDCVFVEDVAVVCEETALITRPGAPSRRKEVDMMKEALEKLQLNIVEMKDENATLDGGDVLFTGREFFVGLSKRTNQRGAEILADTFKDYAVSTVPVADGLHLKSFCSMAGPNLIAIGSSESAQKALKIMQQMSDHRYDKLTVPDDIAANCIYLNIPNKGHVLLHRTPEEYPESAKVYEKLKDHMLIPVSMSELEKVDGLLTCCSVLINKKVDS

IC50 [2]	Compound	Ki [1]
	NCCCC[C@H](N)C(=O)O [LYSINE]	2.8 mM
640 µM	N[C@@H](CCS)C(=O)O [L-HOMOCYSTEINE]	
